Test results published in US7361743B2 (Pfizer Inc, priority 2004, dated 2008).
≈ marks a conversion by molar mass, not a printed value. Like-named read-outs stand apart in the source and are kept apart here.

How the values were obtained:
Assay type in all cases: cell-based
[1] = system: Haemophilus influenzae; experiment: Susceptibility testing, NCCLS microdilution MIC; conditions: for MIC: Haemophilus influenzae
[2] = system: Enterococcus faecalis; experiment: Susceptibility testing, NCCLS microdilution MIC; conditions: for MIC: Enterococcus faecalis
[3] = system: Bacteroides fragilis; experiment: Susceptibility testing, NCCLS microdilution MIC (anaerobe); conditions: for MIC: Bacteroides fragilis
[4] = system: Staphylococcus aureus; experiment: Susceptibility testing, NCCLS microdilution MIC; conditions: ATCC25923, S. aureus ATCC 25923, Example A′, read-out: MIC S. aureus
[5] = ATCC31517, Example A′, strain ATCC 31517, 24 h at 35° C., read-out: MIC against H. influenzae strain ATCC 31517
[6] = Example A′, strain ATCC29212, 24 h at 35° C., read-out: MIC against Enterococcus faecalis strain ATCC29212
[7] = ATCC31517, Example A, strain ATCC 31517, 16-20 h at 35° C., read-out: MIC against H. influenzae strain ATCC 31517
[8] = ATCC31517, H. influenzae ATCC 31517, NCCLS microdilution, read-out: MIC H. influenzae
[9] = ATCC29212, E. faecalis ATCC 29212, NCCLS microdilution, read-out: MIC E. faecalis
[10] = Example A, strain ATCC29212, 16-20 h at 35° C., read-out: MIC against Enterococcus faecalis strain ATCC29212
[11] = ATCC25285, B. fragilis ATCC 25285, NCCLS microdilution, anaerobe, read-out: MIC B. fragilis
[12] = Example A, strain ATCC25285, anaerobe, 35° C. for 46-48 h, read-out: MIC against Bacteroides fragilis strain ATCC25285
[13] = ATCC31517, H. influenzae ATCC 31517, Example A′, read-out: MIC H. influenzae
[14] = ATCC29212, E. faecalis ATCC 29212, Example A′, read-out: MIC E. faecalis
[15] = ATCC25285, B. fragilis ATCC 25285, Example A′, read-out: MIC B. fragilis

| MIC [1, 5] | MIC [2, 6] | MIC [1, 8] | MIC [2, 9] | MIC [2, 10] | MIC [3, 11] | MIC [3, 12] | Structure (SMILES) | further results |
| --- | --- | --- | --- | --- | --- | --- | --- | --- |
| ≥ 0.5 µg/mL | ≤ 0.125 µg/mL |  |  |  |  |  | CCS[C@@H]1CN[C@H](C(=O)N[C@@H]([C@H]2O[C@H](SC)[C@H](O)[C@@H](O)[C@H]2O)[C@H](C)Cl)C1 (stereo in doubt) [Example 8, 4-Ethylsulfanyl-pyrrolidine-2-carboxylic acid [2-chloro-1-(3,4,5-trihydroxy-6-methylsulfanyl-tetrahydro-pyran-2-yl)-propyl]-amide] |  |
| ≥ 0.5 µg/mL | ≤ 0.125 µg/mL |  |  |  |  |  | CCS[C@@H]1CN[C@H](C(=O)N[C@@H]([C@H]2O[C@H](SC)[C@H](O)[C@@H](O)[C@H]2O)[C@@H](C)O)C1 [Example 5, 4-Ethylsulfanyl-pyrrolidine-2-carboxylic acid [2-hydroxy-1-(3,4,5-trihydroxy-6-methylsulfanyl-tetrahydro-pyran-2-yl)-propyl]-amide] |  |
| ≥ 0.5 µg/mL | ≤ 0.125 µg/mL |  |  |  |  |  | CS[C@H]1O[C@H]([C@H](NC(=O)[C@@H]2C[C@H](SCCC(F)(F)F)CN2)[C@@H](C)O)[C@H](O)[C@H](O)[C@H]1O [Example 11, 4-(3,3,3-Trifluoro-propylsulfanyl)-pyrrolidine-2-carboxylic acid [2-hydroxy-1-(3,4,5-trihydroxy-6-methylsulfanyl-tetrahydro-pyran-2-yl)-propyl]-amide] |  |
| ≥ 0.5 µg/mL | ≤ 0.125 µg/mL |  |  |  |  |  | CS[C@H]1O[C@H]([C@H](NC(=O)[C@@H]2C[C@H](Sc3ccc(F)cc3)CN2)[C@@H](C)O)[C@H](O)[C@H](O)[C@H]1O (stereo in doubt) [Example 10, 4-(4-Fluoro-phenylsulfanyl)-pyrrolidine-2-carboxylic acid [2-hydroxy-1-(3,4,5-trihydroxy-6-methylsulfanyl-tetrahydro-pyran-2-yl)-propyl]-amide] |  |
| ≥ 0.5 µg/mL |  |  |  |  |  |  | CS[C@H]1O[C@H]([C@H](NC(=O)[C@@H]2C[C@H](SCCC(C)C)CN2)[C@@H](C)O)[C@H](O)[C@H](O)[C@H]1O (stereo in doubt) [Example 12, 4-(3-Methyl-butylsulfanyl)-pyrrolidine-2-carboxylic acid [2-hydroxy-1-(3,4,5-trihydroxy-6-methylsulfanyl-tetrahydro-pyran-2-yl)-propyl]-amide] |  |
| ≥ 0.5 µg/mL | ≤ 0.125 µg/mL |  |  |  |  |  | CCCCS[C@@H]1CN[C@H](C(=O)N[C@@H]([C@H]2O[C@H](SC)[C@H](O)[C@@H](O)[C@H]2O)[C@@H](C)O)C1 (stereo in doubt) [Example 4, 4-Butylsulfanyl-pyrrolidine-2-carboxylic acid [2-hydroxy-1-(3,4,5-trihydroxy-6-methylsulfanyl-tetrahydro-pyran-2-yl)-propyl]-amide] |  |

Continued, compound first:

| Structure (SMILES) | MIC [1, 5] | MIC [2, 6] | MIC [1, 8] | MIC [2, 9] | MIC [2, 10] | MIC [3, 11] | MIC [3, 12] | further results |
| --- | --- | --- | --- | --- | --- | --- | --- | --- |
| CCCC1CCN[C@H](C(=O)N[C@@H]([C@H]2O[C@H](SC)[C@H](O)[C@@H](O)[C@H]2O)[C@H](C)Cl)CC1 (stereo partly shown) [Example 47, 5-Propyl-azepane-2-carboxylic acid [2-chloro-1-(3,4,5-trihydroxy-6-methylsulfanyl-tetrahydro-pyran-2-yl)-propyl]-amide] |  |  | 0.5 µg/mL (≈ 1.14 µM) | 0.125 µg/mL (≈ 0.285 µM) | ≤ 0.125 µg/mL | 0.125 µg/mL (≈ 0.285 µM) | ≤ 0.5 µg/mL | MIC [1, 7]: 0.5 µg/mL (≈ 1.14 µM); MIC ([1]; Example A, strain not stated, 16-20 h at 35° C., read-out: MIC against Haemophilus influenzae): ≥ 4 µg/mL |
| CCC[C@@H]1C[C@@H](C(=O)N[C@@H]([C@H]2O[C@H](SC)[C@H](O)[C@@H](O)[C@H]2O)[C@H](C)Cl)N(C)C1 [clindamycin, reference compound] | 8 µg/mL (≈ 18.8 µM) | > 8 µg/mL | 8 µg/mL (≈ 18.8 µM) | > 8 µg/mL | > 8 µg/mL | 2 µg/mL (≈ 4.71 µM) | 2 µg/mL (≈ 4.71 µM) | MIC H. influenzae ([1]; H. influenzae ATCC 31517, Example A′): 8 µg/mL (≈ 18.8 µM); MIC [1, 7]: 8 µg/mL (≈ 18.8 µM); MIC E. faecalis ([2]; E. faecalis ATCC 29212, Example A′): >8 µg/mL; MIC B. fragilis ([3]; B. fragilis ATCC 25285, Example A′): 2 µg/mL (≈ 4.71 µM); MIC [4]: 0.125 µg/mL (≈ 0.294 µM) |
| CS[C@H]1O[C@H]([C@H](NC(=O)[C@@H]2C[C@@H](CC=C(F)F)CN2)C(C)C)[C@H](O)[C@H](O)[C@H]1O [Example 1, 4-(3,3-difluoroprop-2-ene)-pyrrolidine-2-carboxylic acid [2-methyl-1-(3,4,5-trihydroxy-6-methylsulfanyl-tetrahydro-pyran-2-yl)-propyl]-amide] | ≥ 0.5 µg/mL |  |  |  |  |  |  |  |
| CCCCC1CCN[C@H](C(=O)N[C@@H]([C@H]2O[C@H](SC)[C@H](O)[C@@H](O)[C@H]2O)[C@H](C)Cl)CC1 (stereo partly shown) [Example 144, 5-Butyl-azepane-2-carboxylic acid [2-chloro-1-(3,4,5-trihydroxy-6-methylsulfanyl-tetrahydro-pyran-2-yl)-propyl]-amide] |  |  | 0.5 µg/mL (≈ 1.1 µM) | 0.03 µg/mL (≈ 0.0662 µM) | ≤ 0.125 µg/mL | 0.125 µg/mL (≈ 0.276 µM) | ≤ 0.5 µg/mL | MIC [1, 7]: 0.5 µg/mL (≈ 1.1 µM) |
| CCOCCC[C@@H]1CCN[C@H](C(=O)N[C@@H]([C@H]2O[C@H](SC)[C@H](O)[C@@H](O)[C@H]2O)[C@H](C)Cl)CC1 [Example 19′, 5-(3-Ethoxy-propyl)-azepane-2-carboxylic acid [2-chloro-1-(3,4,5-trihydroxy-6-methylsulfanyl-tetrahydro-pyran-2-yl)-propyl]-amide] |  |  |  |  |  |  |  | MIC [1, 13]: 4 µg/mL (≈ 8.28 µM); MIC [2, 14]: 2 µg/mL (≈ 4.14 µM); MIC [3, 15]: 8 µg/mL (≈ 16.6 µM); MIC [4]: 0.125 µg/mL (≈ 0.259 µM) |
| CS[C@H]1OC([C@H](NC(=O)[C@@H]2C[C@H](CCC3CCC3)CCN2)[C@H](C)Cl)[C@H](O)[C@H](O)[C@H]1O (stereo in doubt) [Example 81, 4-(2-Cyclobutyl-ethyl)-piperidine-2-carboxylic acid [2-chloro-1-(3,4,5-trihydroxy-6-methylsulfanyl-tetrahydro-pyran-2-yl)-propyl]-amide] |  |  | 2 µg/mL (≈ 4.3 µM) | 0.03 µg/mL (≈ 0.0645 µM) | ≤ 0.125 µg/mL | 0.125 µg/mL (≈ 0.269 µM) | ≤ 0.5 µg/mL |  |
| CS[C@H]1O[C@H]([C@H](NC(=O)[C@@H]2C[C@@H](C/C=C/c3ccncc3)CN2)C(C)C)[C@H](O)[C@H](O)[C@H]1O (stereo in doubt) [Example 2, 4-(3-Pyridin-4-yl-allyl)-pyrrolidine-2-carboxylic acid [2-methyl-1-(3,4,5-trihydroxy-6-methylsulfanyl-tetrahydro-pyran-2-yl)-propyl]-amide] | ≥ 0.5 µg/mL |  |  |  |  |  |  |  |
| CS[C@H]1O[C@H]([C@H](NC(=O)[C@@H]2C[C@@H](CCCc3ccncc3)CN2)C(C)C)[C@H](O)[C@H](O)[C@H]1O (stereo in doubt) [Example 3, 4-(3-Pyridin-4-yl-propyl)-pyrrolidine-2-carboxylic acid [2-methyl-1-(3,4,5-trihydroxy-6-methylsulfanyl-tetrahydro-pyran-2-yl)-propyl]-amide] | ≥ 0.5 µg/mL | ≤ 0.125 µg/mL |  |  |  |  |  |  |
| CS[C@H]1O[C@H]([C@H](NC(=O)[C@@H]2CC[C@H](CCCOCCF)CCN2)[C@H](C)Cl)[C@H](O)[C@H](O)[C@H]1O [Example 20′, 5-[3-(2-Fluoro-ethoxy)-propyl]-azepane-2-carboxylic acid [2-chloro-1-(3,4,5-trihydroxy-6-methylsulfanyl-tetrahydro-pyran-2-yl)-propyl]-amide] |  |  |  |  |  |  |  | MIC [1, 13]: 2 µg/mL (≈ 3.99 µM); MIC [2, 14]: 2 µg/mL (≈ 3.99 µM); MIC [3, 15]: 8 µg/mL (≈ 16 µM); MIC [4]: 0.125 µg/mL (≈ 0.249 µM) |
| CS[C@H]1OC([C@H](NC(=O)[C@@H]2C[C@H](CC3CCC3)CCN2)[C@H](C)Cl)[C@H](O)[C@H](O)[C@H]1O (stereo in doubt) [Example 82, 4-Cyclobutylmethyl-piperidine-2-carboxylic acid [2-chloro-1-(3,4,5-trihydroxy-6-methylsulfanyl-tetrahydro-pyran-2-yl)-propyl]-amide] |  |  | 2 µg/mL (≈ 4.43 µM) | 0.125 µg/mL (≈ 0.277 µM) | ≤ 0.125 µg/mL | 0.25 µg/mL (≈ 0.554 µM) | ≤ 0.5 µg/mL |  |
| CCCCCC1CCN[C@H](C(=O)N[C@@H]([C@H]2O[C@H](SC)[C@H](O)[C@@H](O)[C@H]2O)[C@H](C)Cl)CC1 (stereo partly shown) [Example 145, 5-Pentyl-azepane-2-carboxylic acid [2-chloro-1-(3,4,5-trihydroxy-6-methylsulfanyl-tetrahydro-pyran-2-yl)-propyl]-amide] |  |  | 0.5 µg/mL (≈ 1.07 µM) | 0.125 µg/mL (≈ 0.268 µM) | ≤ 0.125 µg/mL | 0.5 µg/mL (≈ 1.07 µM) | ≤ 0.5 µg/mL | MIC [1, 7]: 0.5 µg/mL (≈ 1.07 µM) |
